From ChEMBL document CHEMBL4507295 (2021)

What was measured:
[1] = test system: Tyrosine-protein kinase ABL1 (Homo sapiens), P00519 [Q252H]; conditions: Compound concentration 1000.0 nM
[2] = biological target: Cyclin-dependent kinase-like 3 (Homo sapiens) (UniProt Q8IVW4); conditions: Compound concentration 1000.0 nM
[3] = biological target: Serine/threonine-protein kinase PLK1 (Homo sapiens) (UniProt P53350); conditions: Compound concentration 1000.0 nM
[4] = biological target: Serine/threonine-protein kinase tousled-like 2 (Homo sapiens) (UniProt Q86UE8); conditions: Compound concentration 1000.0 nM
Sequence of Serine/threonine-protein kinase tousled-like 2 (Homo sapiens) (Q86UE8 whole entry, looked up): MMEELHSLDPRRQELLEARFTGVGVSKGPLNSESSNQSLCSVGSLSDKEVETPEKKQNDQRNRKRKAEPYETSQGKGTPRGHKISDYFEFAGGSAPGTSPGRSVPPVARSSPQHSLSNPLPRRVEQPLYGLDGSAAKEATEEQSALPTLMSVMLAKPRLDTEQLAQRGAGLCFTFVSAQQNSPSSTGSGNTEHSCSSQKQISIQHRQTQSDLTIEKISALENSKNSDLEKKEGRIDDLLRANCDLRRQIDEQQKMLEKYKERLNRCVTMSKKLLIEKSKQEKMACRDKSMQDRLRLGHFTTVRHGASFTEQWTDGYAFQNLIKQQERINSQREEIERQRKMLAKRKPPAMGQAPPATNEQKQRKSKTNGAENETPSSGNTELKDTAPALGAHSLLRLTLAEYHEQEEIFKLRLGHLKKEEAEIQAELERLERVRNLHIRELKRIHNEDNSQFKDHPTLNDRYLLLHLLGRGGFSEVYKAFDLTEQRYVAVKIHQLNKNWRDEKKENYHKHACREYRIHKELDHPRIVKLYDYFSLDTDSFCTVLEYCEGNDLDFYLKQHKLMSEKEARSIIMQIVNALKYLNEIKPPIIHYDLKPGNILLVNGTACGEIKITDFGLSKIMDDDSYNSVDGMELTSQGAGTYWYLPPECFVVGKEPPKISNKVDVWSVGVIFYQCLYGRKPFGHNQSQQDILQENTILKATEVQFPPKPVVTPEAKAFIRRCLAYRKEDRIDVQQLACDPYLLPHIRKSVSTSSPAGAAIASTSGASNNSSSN

[5] = biological target: cGMP-dependent protein kinase 1 (Homo sapiens) (UniProt Q13976); conditions: Compound concentration 1000.0 nM
[6] = biological target: Serine/threonine-protein kinase Nek6 (Homo sapiens) (UniProt Q9HC98); conditions: Compound concentration 1000.0 nM
[7] = biological target: Serine/threonine-protein kinase WNK2 (Homo sapiens) (UniProt Q9Y3S1); conditions: Compound concentration 1000.0 nM
[8] = biological target: Tyrosine-protein kinase Yes (Homo sapiens) (UniProt P07947); conditions: Compound concentration 1000.0 nM
[9] = biological target: Serine/threonine-protein kinase 25 (Homo sapiens) (UniProt O00506); conditions: Compound concentration 1000.0 nM
[10] = biological target: Dual specificity protein kinase CLK2 (Homo sapiens) (UniProt P49760); conditions: Compound concentration 1000.0 nM
[11] = biological target: Casein kinase I isoform gamma-3 (Homo sapiens) (UniProt Q9Y6M4); conditions: Compound concentration 1000.0 nM
[12] = test system: Tyrosine-protein kinase ABL1 (Homo sapiens), P00519 [F317L]; conditions: Compound concentration 1000.0 nM
[13] = biological target: Tyrosine-protein kinase SYK (Homo sapiens) (UniProt P43405); conditions: Compound concentration 1000.0 nM
[14] = test system: Receptor-type tyrosine-protein kinase FLT3 (Homo sapiens), P36888 [D835V]; conditions: Compound concentration 1000.0 nM
[15] = biological target: Mitogen-activated protein kinase kinase kinase kinase 2 (Homo sapiens) (UniProt Q12851); conditions: Compound concentration 1000.0 nM
[16] = biological target: Dual specificity mitogen-activated protein kinase kinase 3 (Homo sapiens) (UniProt P46734); conditions: Compound concentration 1000.0 nM
[17] = biological target: Dual serine/threonine and tyrosine protein kinase (Homo sapiens) (UniProt Q6XUX3); conditions: Compound concentration 1000.0 nM
[18] = biological target: Fibroblast growth factor receptor 3 (Homo sapiens) (UniProt P22607); conditions: Compound concentration 1000.0 nM
[19] = biological target: Serine/threonine-protein kinase N2 (Homo sapiens) (UniProt Q16513); conditions: Compound concentration 1000.0 nM
[20] = test system: Receptor-type tyrosine-protein kinase FLT3 (Homo sapiens), P36888 [UNDEFINED MUTATION]; conditions: Compound concentration 1000.0 nM
[21] = biological target: Serine/threonine-protein kinase 32B (Homo sapiens) (UniProt Q9NY57); conditions: Compound concentration 1000.0 nM
[22] = biological target: 5-hydroxytryptamine receptor 1B (Homo sapiens) (UniProt P28222); conditions: Compound concentration 10.0 uM
Sequence of 5-hydroxytryptamine receptor 1B (Homo sapiens) (P28222 whole entry): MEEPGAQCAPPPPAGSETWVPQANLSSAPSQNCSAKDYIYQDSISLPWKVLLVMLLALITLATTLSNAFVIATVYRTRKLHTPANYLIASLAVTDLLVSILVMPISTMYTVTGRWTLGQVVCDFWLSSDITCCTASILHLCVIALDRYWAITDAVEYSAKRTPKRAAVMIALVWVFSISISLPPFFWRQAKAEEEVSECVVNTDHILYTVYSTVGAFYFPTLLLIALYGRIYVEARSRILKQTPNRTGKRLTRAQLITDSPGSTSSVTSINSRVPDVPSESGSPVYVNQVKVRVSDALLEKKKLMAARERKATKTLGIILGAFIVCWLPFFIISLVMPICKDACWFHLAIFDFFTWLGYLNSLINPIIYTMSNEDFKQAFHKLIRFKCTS

[23] = biological target: Ephrin type-A receptor 4 (Homo sapiens) (UniProt P54764); conditions: Compound concentration 1000.0 nM
Sequence of Ephrin type-A receptor 4 (Homo sapiens) (P54764 whole entry): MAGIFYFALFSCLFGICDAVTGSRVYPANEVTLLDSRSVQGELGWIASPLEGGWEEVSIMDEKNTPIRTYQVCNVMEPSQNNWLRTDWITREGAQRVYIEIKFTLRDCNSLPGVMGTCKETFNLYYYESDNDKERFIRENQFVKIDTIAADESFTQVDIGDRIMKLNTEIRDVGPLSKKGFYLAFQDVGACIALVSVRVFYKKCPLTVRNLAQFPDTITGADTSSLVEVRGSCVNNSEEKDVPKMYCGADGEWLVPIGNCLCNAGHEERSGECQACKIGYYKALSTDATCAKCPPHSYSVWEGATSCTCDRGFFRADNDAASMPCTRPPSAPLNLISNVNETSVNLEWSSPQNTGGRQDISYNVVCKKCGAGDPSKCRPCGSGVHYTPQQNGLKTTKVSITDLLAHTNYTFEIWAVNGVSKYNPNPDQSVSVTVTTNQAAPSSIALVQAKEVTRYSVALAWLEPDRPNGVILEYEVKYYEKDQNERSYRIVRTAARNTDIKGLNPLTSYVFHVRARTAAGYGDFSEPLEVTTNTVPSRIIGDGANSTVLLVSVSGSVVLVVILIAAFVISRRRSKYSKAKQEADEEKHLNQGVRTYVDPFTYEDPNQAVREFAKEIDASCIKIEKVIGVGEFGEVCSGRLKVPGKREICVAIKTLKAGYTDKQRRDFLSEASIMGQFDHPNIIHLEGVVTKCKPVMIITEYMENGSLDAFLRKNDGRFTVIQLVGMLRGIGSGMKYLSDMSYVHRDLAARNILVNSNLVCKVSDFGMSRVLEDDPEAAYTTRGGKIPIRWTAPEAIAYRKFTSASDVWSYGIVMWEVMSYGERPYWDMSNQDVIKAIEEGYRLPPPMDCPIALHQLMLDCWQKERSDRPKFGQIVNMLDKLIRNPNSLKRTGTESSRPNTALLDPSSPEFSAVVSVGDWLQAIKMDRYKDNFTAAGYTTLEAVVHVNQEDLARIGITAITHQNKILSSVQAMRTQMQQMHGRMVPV

[24] = biological target: Ribosomal protein S6 kinase alpha-2 (Homo sapiens) (UniProt Q15349); conditions: Compound concentration 1000.0 nM
[25] = biological target: Fibroblast growth factor receptor 1 (Homo sapiens) (UniProt P11362); conditions: Compound concentration 1000.0 nM
[26] = biological target: Death-associated protein kinase 3 (Homo sapiens) (UniProt O43293); conditions: Compound concentration 1000.0 nM
[27] = biological target: Fibroblast growth factor receptor 2 (Homo sapiens) (UniProt P21802); conditions: Compound concentration 1000.0 nM
[28] = biological target: Ribosomal protein S6 kinase alpha-3 (Homo sapiens) (UniProt P51812); conditions: Compound concentration 1000.0 nM
Sequence of Ribosomal protein S6 kinase alpha-3 (Homo sapiens) (P51812 whole entry): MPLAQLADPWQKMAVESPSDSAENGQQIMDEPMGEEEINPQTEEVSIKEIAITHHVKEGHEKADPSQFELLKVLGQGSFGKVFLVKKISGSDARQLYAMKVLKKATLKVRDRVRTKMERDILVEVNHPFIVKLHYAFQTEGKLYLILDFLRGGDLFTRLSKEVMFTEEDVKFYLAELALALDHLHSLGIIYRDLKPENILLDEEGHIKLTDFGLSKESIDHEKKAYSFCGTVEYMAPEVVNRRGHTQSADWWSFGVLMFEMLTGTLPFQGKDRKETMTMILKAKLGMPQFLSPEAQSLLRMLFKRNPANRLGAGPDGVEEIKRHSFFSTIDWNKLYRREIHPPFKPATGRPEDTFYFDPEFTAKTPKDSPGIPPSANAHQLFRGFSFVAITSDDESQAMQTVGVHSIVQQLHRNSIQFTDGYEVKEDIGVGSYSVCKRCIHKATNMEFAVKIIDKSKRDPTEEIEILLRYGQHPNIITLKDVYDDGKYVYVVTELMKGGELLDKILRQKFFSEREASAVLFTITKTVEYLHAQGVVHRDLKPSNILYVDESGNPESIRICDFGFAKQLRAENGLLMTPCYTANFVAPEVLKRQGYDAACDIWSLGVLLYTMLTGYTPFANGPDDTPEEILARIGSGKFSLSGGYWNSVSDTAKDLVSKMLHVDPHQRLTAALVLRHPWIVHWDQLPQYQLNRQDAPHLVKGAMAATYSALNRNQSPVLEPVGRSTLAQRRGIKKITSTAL

[29] = biological target: Serine/threonine-protein kinase MRCK beta (Homo sapiens) (UniProt Q9Y5S2); conditions: Compound concentration 1000.0 nM
[30] = biological target: Ribosomal protein S6 kinase alpha-3 (Homo sapiens) (UniProt P51812); conditions: Compound concentration 1000.0 nM; remark: listed apart in the source
[31] = biological target: Serine/threonine-protein kinase ULK2 (Homo sapiens) (UniProt Q8IYT8); conditions: Compound concentration 1000.0 nM
[32] = biological target: Calcium/calmodulin-dependent protein kinase type II subunit gamma (Homo sapiens) (UniProt Q13555); conditions: Compound concentration 1000.0 nM
[33] = biological target: Homeodomain-interacting protein kinase 3 (Homo sapiens) (UniProt Q9H422); conditions: Compound concentration 1000.0 nM
[34] = biological target: T1, Alpha-2B adrenergic receptor (Homo sapiens) (UniProt P18089); conditions: Compound concentration 10.0 uM
T1 sequence (whole entry): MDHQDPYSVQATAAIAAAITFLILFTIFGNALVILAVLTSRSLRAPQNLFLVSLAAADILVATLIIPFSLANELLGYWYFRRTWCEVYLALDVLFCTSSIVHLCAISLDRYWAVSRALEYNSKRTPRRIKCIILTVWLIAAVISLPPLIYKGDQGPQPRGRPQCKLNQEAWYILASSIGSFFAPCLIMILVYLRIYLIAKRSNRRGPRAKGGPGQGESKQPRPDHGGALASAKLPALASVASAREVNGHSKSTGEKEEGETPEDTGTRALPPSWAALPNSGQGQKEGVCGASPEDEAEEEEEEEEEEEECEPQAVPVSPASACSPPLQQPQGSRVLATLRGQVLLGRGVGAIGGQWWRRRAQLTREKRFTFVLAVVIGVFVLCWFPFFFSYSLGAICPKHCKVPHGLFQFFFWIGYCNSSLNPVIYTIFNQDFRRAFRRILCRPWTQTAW

[35] = biological target: Tyrosine-protein kinase Mer (Homo sapiens) (UniProt Q12866); conditions: Compound concentration 1000.0 nM
[36] = biological target: Cyclin-dependent kinase 13 (Homo sapiens) (UniProt Q14004); conditions: Compound concentration 1000.0 nM
Sequence of Cyclin-dependent kinase 13 (Homo sapiens) (Q14004 whole entry, looked up): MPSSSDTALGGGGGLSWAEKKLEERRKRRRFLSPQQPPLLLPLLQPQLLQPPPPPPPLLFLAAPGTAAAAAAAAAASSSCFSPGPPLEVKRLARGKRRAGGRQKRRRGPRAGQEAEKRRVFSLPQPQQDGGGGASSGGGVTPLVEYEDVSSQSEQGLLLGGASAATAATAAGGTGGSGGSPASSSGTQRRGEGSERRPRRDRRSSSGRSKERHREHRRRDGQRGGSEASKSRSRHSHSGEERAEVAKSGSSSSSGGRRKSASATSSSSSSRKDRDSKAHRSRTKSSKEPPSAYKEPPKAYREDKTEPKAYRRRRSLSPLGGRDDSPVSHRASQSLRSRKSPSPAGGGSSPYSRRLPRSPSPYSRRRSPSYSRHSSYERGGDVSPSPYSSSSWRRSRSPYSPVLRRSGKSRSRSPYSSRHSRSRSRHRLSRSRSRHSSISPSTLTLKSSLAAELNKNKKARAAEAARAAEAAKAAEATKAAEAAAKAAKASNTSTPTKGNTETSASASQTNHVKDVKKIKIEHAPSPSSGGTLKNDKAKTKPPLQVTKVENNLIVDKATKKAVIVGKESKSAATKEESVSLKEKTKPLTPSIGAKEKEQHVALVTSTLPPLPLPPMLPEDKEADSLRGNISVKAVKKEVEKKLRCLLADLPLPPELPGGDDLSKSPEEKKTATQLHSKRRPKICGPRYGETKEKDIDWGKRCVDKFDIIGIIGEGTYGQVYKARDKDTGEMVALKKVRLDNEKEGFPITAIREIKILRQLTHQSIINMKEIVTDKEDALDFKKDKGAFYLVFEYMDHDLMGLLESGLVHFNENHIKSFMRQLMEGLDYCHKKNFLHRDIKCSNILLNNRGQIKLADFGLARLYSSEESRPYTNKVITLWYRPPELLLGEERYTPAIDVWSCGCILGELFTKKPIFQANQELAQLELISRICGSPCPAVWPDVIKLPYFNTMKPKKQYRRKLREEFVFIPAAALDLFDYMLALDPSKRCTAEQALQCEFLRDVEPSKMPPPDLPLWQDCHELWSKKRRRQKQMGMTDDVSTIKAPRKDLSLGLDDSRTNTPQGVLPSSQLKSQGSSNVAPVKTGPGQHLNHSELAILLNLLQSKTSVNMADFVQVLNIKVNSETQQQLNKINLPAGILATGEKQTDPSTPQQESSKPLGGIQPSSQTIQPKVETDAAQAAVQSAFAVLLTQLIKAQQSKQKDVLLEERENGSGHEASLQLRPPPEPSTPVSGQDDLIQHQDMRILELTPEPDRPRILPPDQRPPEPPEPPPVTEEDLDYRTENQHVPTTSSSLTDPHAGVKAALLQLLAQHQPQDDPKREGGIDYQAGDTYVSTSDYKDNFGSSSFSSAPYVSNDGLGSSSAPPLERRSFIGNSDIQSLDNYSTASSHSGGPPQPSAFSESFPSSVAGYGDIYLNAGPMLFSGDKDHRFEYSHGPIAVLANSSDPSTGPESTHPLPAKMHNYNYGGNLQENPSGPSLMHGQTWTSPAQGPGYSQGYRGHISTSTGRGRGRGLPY

[37] = biological target: Calcium/calmodulin-dependent protein kinase type II subunit beta (Homo sapiens) (UniProt Q13554); conditions: Compound concentration 1000.0 nM
Sequence of Calcium/calmodulin-dependent protein kinase type II subunit beta (Homo sapiens) (Q13554 whole entry): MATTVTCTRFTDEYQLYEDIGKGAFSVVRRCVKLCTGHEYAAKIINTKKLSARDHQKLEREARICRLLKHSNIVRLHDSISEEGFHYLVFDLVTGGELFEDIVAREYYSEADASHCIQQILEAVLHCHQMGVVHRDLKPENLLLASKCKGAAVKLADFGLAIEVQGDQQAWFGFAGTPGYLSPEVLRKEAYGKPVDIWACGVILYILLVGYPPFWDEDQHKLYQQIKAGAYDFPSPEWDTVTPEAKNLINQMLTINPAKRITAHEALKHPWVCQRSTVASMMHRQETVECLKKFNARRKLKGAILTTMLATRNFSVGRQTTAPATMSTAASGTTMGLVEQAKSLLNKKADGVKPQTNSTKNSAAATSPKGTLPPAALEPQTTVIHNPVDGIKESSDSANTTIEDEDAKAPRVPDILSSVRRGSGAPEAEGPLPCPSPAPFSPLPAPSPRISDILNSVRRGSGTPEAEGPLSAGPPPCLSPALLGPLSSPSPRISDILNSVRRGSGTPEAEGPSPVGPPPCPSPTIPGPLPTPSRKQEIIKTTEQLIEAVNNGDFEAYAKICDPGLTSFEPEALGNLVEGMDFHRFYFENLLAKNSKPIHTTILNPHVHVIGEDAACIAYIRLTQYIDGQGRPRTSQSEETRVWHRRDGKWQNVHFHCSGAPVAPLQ

[38] = biological target: Maternal embryonic leucine zipper kinase (Homo sapiens) (UniProt Q14680); conditions: Compound concentration 1000.0 nM
[39] = biological target: Mitogen-activated protein kinase 7 (Homo sapiens) (UniProt Q13164); conditions: Compound concentration 1000.0 nM

N#CC1(c2ccccn2)CCN(Cc2cc(C(=O)N3CCCC3)c(=O)n3ccccc23)CC1
inactive: residual activity [1] 90% | residual activity [2] 78% | residual activity [3] 100% | residual activity [4] 100% | residual activity [5] 88% | residual activity [6] 100% | residual activity [7] 100% | residual activity [8] 84% | residual activity [9] 97% | residual activity [10] 100% | residual activity [11] 76% | residual activity [12] 100% | residual activity [13] 92% | residual activity [14] 98% | residual activity [15] 96% | residual activity [16] 81% | residual activity [17] 80% | residual activity [18] 88% | residual activity [19] 88% | residual activity [20] 90% | residual activity [21] 100% | inhibition [22] 13% | residual activity [23] 89% | residual activity [24] 88% | residual activity [25] 93% | residual activity [26] 86% | residual activity [27] 91% | residual activity [28] 100% | residual activity [29] 63% | residual activity [30] 60% | residual activity [31] 92% | residual activity [32] 100% | residual activity [33] 97% | inhibition [34] -2.99% | residual activity [35] 86% | residual activity [36] 100% | residual activity [37] 89% | residual activity [38] 78% | residual activity [39] 63%

N#CC1(c2ccccn2)CCN(Cc2cc(C(=O)O)c(=O)n3ccccc23)CC1 [MSD-M1PAM]
inactive: residual activity [1] 72% | residual activity [2] 89% | residual activity [3] 70% | residual activity [4] 98% | residual activity [5] 98% | residual activity [6] 100% | residual activity [7] 79% | residual activity [8] 94% | residual activity [9] 100% | residual activity [10] 100% | residual activity [11] 93% | residual activity [12] 84% | residual activity [13] 92% | residual activity [14] 100% | residual activity [15] 81% | residual activity [16] 73% | residual activity [17] 75% | residual activity [18] 100% | residual activity [19] 100% | residual activity [20] 100% | residual activity [21] 100% | inhibition [22] 2.72% | residual activity [23] 79% | residual activity [24] 100% | residual activity [25] 98% | residual activity [26] 95% | residual activity [27] 100% | residual activity [28] 100% | residual activity [29] 96% | residual activity [30] 81% | residual activity [31] 93% | residual activity [32] 100% | residual activity [33] 84% | inhibition [34] -6.86% | residual activity [35] 100% | residual activity [36] 98% | residual activity [37] 100% | residual activity [38] 55% | residual activity [39] 94%
